Measurements reported in US20020146679A1, “Method for creating endothelial cell dysfunction in cell culture” (priority 2001, published 2002).
“And” between values parts separate entries of the source, which are not always exact repeats. Equal entries are not always repeated. “Also recorded” adds a separate entry of the source.

Key:
Format in all cases: cell-based, human
[1] = tested on: EA.hyb926 Endothelial Cells; assay: Gene expression by Affymetrix gene chip profiling
Protocol: Control cells were treated with vehicle for the same times and RNA isolated as above. Transcript integrity was monitored using denaturing agarose gel electrophoresis in 1X MOPS. Biotinylated target RNA was prepared from 15 μg of total RNA using the Affymetrix protocol. Briefly, double-stranded cDNA was prepared from the RNA template using a modified oligo-dT primer containing a 5′ T7 RNA polymerase promoter sequence and the Superscript Choice System for cDNA Synthesis (Life Technologies Inc., Gaithersburg, Md.). Following phenol-chloroform extraction and ethanol precipitation, one-half of the cDNA reaction (0.5-1.0 μg) was used as template in an in vitro transcription reaction containing T7 RNA polymerase, a mixture of unlabeled ATP, CTP, GTP, and UTP, and biotin-11-CTP and biotin-16-UTP (BioArray High Yield Kit, ENZO, Inc.). The resulting biotinylated-cRNA “target” was purified on an affinity resin (RNeasy, Qiagen) and quantified using the convention that 1 O.D. Two-hundred sixty corresponds to 40 μg/mL of RNA. Typical yields ranged from 50 to 100 μg with transcript sizes between […] as determined by gel electrophoresis. Fifteen micrograms of biotinylated cRNA was randomly fragmented to an average size of 50 nucleotides by incubating at 94° C. for 35 minutes in 40 mM TRIS-acetate, pH 8.1, 100 mM potassium acetate, and 30 mM magnesium acetate. The fragmented cRNA was hybridized in a solution containing 100 mM MES, 1 M [Na^+], 20 mM EDTA, 0.01% TWEEN 20, 50 pM of Control Oligonucleotide B2 (Affymetrix, Inc.), 0.1 mg/mL of sonicated herring sperm DNA, and 0.5 mg/mL BSA for 16 hours at 45° C. on a Human 6800 Affymetrix GeneChip. Each hybridization included a mixture of four bacterial biotinylated-RNA transcripts (BioB, BioC, BioD, and cre) spiked at 1.5, 5, 25, and 100 pM, respectively. The hybridization reactions were processed and scanned according to the standard Affymetrix protocols.
EA cells incubated with 10 ng/mL TNFα(with 5% FBS) for 6 hours (short-term) or 6 days (chronic exposure) were evaluated for identification of cytokine-responsive endothelial genes. […] In addition, ecNOS expression was reduced 4-fold from control, consistent with the western and northern blot data (FIGS. 6 and 7).

[2] = tested on: EA hy926 cells; assay: Western blotting analysis of endothelial marker proteins
Protocol: The whole cell lysates were generated by suspending cell pellets with protein lysis buffer containing 10 mM Tris.CI (pH 7.6), 1 mM EDTA (pH 8.0), 100 mM NaCI, 1 μg/mL aprotinin, and 100 μg/mL phenylmethylsulfonyl fluoride. The lysates were sonicated for 15 seconds at output control level 4 with Sonifier 450 model manufactured by VWR Scientific products. Fifty microgram lysates protein for each sample was electrophoretically separated in 8% to 16% Tris-Glycine Gel and transferred to a nitrocellulose membrane. The proteins on the membrane were stained with PONCEAS solution to check if the proteins loading and transfer were even. The membranes were separately incubated with 5% dry milk Phosphate-buffered saline (PBS) at room temperature for 2 hours and followed by overnight incubation at 4° C. with fresh 5% dry milk PBS containing primary antibodies at 1:2000 dilution. The peroxidase conjugated secondary antibodies was diluted at 1:4000 dilution with 5% PBS buffer. The incubation with secondary antibody was carried out at room temperature for 1 hour. The membranes were then subject to staining with ECL solution and exposure to films.

[3] = tested on: EA hy926 endothelial cells; assay: Tube formation assay on MATRIGEL (in vitro angiogenesis)
Protocol: According to an aspect of the invention, EA hy926 (EA) cells are initially grown in standard endothelial cell culture medium consisting of MCDB 131 (Clonetics Corp.) supplemented with 10 fetal bovine serum (FBS) (Hyclone laboratories), 100 U/mL penicillin/streptomycin, 50 μg/mL gentamicin, and other endothelial growth supplements (EGM bullet kit, Clonetics Corp.). […] Cells were grown in these conditions for 6 to 7 days. EA cells are then dispersed by trypsinization, counted, suspended in EGM media containing […], and plated onto the surface of a MATRIGEL® basement membrane protein matrix (0.5 mL/well, dispensed into 24-well tissue culture plates according to the manufacturer's instructions) at a density of 5×10^5 cells per well (24 well plate). The cells were then placed in a CO2 incubator at 37° C. and observed over a 16- to 24-hour period for cell differentiation into tube-like structures resembling capillaries. […]
EBM medium and its supplement were purchased from Clonetics. […] EA cells were then dispersed by trypsinization, counted, suspended in EGM media containing 10% FBS, and plated onto the surface of a MATRIGEL® basement membrane matrix (0.5 mL/well, dispensed into 24-well tissue culture plates according to the manufacturer's instructions) at a density of 5×10^5 cells per well (24-well plate). […]

[4] = 6-day (chronic) TNFα treatment, 5% FBS
[5] = SNAP 200 μM co-incubated with TNFα for 6 days

## TNFα
[1]; 6 day TNFα treatment, 10 ng/mL with 5% FBS
  ecNOS expression reduced from control: 4 fold
[1]; TNFα 6 hr, accession HG4069
  Short- (6 hr Tx) Fold Increase: MCP-1: 4.5 Fold
[1]; TNFα 6 hr, accession J05070
  Short- (6 hr Tx) Fold Increase: Type IV collagenase: 4.7 Fold
[1]; TNFα 6 hr, accession M13207
  Short- (6 hr Tx) Fold Increase: GM-CSF: 23.0 Fold
[1]; TNFα 6 hr, accession M14648
  Short- (6 hr Tx) Fold Increase: Vitronectin: 4.3 Fold
[1]; TNFα 6 hr, accession M21121
  Short- (6 hr Tx) Fold Increase: RANTES: 39.5 Fold
[1]; TNFα 6 hr, accession M28130
  Short- (6 hr Tx) Fold Increase: Interleukin-8: 4.6 Fold
[1]; TNFα 6 hr, accession M31165
  Short- (6 hr Tx) Fold Increase: TNF-Inducible, CD44 adhesion receptor: 2.7 Fold
[1]; TNFα 6 hr, accession M58603
  Short- (6 hr Tx) Fold Increase: NFkB1 (p105): 4.4 Fold
[1]; TNFα 6 hr, accession M59465
  Short- (6 hr Tx) Fold Increase: A20: TNFα-inducible transcription factor: 6.5 Fold
[1]; TNFα 6 hr, accession M60335
  Short- (6 hr Tx) Fold Increase: VCAM-1: 32 Fold and 32.3 Fold
[1]; TNFα 6 hr, accession M93718, nc = no change from vehicle treated
  Short- (6 hr Tx) Fold Increase: ecNOS (NOS 3): did not affect
[1]; TNFα 6 hr, accession U22431
  Short- (6 hr Tx) Fold Increase: HIF-1 α: 4.6 Fold
[1]; TNFα 6 hr, accession U43142
  Short- (6 hr Tx) Fold Increase: VEGF C: 7.8 Fold
[1]; TNFα 6 hr, accession U45878
  Short- (6 hr Tx) Fold Increase: Hiapl: 17.7 Fold
[1]; TNFα 6 hr, accession X04500
  Short- (6 hr Tx) Fold Increase: Prointerleukin-1β: 42.2 Fold
[1]; TNFα 6 hr, accession X07834
  Short- (6 hr Tx) Fold Increase: Manganese superoxide dismutase: 13.1 Fold
[1]; TNFα 6 hr, accession X53800
  Short- (6 hr Tx) Fold Increase: Macrophage inflammatory protein2-β: 11.2 Fold
[1]; TNFα 6 hr, accession X68742
  Short- (6 hr Tx) Fold Increase: Integrin, αV subunit (vitronectin receptor): 4.3 Fold
[1]; TNFα 6 hr, accession X83535
  Short- (6 hr Tx) Fold Increase: MT-MMP: 4.3 Fold
[1]; TNFα 6 day, accession HG4069
  Chronic- (6 day Tx) Fold Increase: MCP-1: 8.7 Fold
[1]; TNFα 6 day, accession J05070
  Chronic- (6 day Tx) Fold Increase: Type IV collagenase: 27.2 Fold
[1]; TNFα 6 day, accession M10321
  Chronic- (6 day Tx) Fold Increase: Von Willebrand factor: −8.3 Fold
[1]; TNFα 6 day, accession M13207
  Chronic- (6 day Tx) Fold Increase: GM-CSF: 37.1 Fold
[1]; TNFα 6 day, accession M14648
  Chronic- (6 day Tx) Fold Increase: Vitronectin: 6.8 Fold
[1]; TNFα 6 day, accession M21121
  Chronic- (6 day Tx) Fold Increase: RANTES: 62.8 Fold
[1]; TNFα 6 day, accession M28130
  Chronic- (6 day Tx) Fold Increase: Interleukin-8: 32.6 Fold
[1]; TNFα 6 day, accession M31165
  Chronic- (6 day Tx) Fold Increase: TNF-Inducible, CD44 adhesion receptor: 37.1 Fold
[1]; TNFα 6 day, accession M58603
  Chronic- (6 day Tx) Fold Increase: NFkB1 (p105): 2.9 Fold
[1]; TNFα 6 day, accession M59465
  Chronic- (6 day Tx) Fold Increase: A20: TNFα-inducible transcription factor: 6.6 Fold
[1]; TNFα 6 day, accession M93718
  Chronic- (6 day Tx) Fold Increase: ecNOS (NOS 3): −3.9 Fold
[1]; TNFα 6 day, accession U37518
  Chronic- (6 day Tx) Fold Increase: TRAIL: 4.8 Fold
[1]; TNFα 6 day, accession U43142
  Chronic- (6 day Tx) Fold Increase: VEGF C: 27.1 Fold
[1]; TNFα 6 day, accession U45878
  Chronic- (6 day Tx) Fold Increase: Hiapl: 6.9 Fold
[1]; TNFα 6 day, accession X04500
  Chronic- (6 day Tx) Fold Increase: Prointerleukin-1β: 213.1 Fold
[1]; TNFα 6 day, accession X07834
  Chronic- (6 day Tx) Fold Increase: Manganese superoxide dismutase: 63.4 Fold
[1]; TNFα 6 day, accession X53800
  Chronic- (6 day Tx) Fold Increase: Macrophage inflammatory protein2-β: 40.6 Fold
[1]; TNFα 6 day, accession X68742
  Chronic- (6 day Tx) Fold Increase: Integrin, αV subunit (vitronectin receptor): 6.8 Fold
[1]; TNFα 6 day, accession X72308
  Chronic- (6 day Tx) Fold Increase: MCP-3: 19.9 Fold
[1]; TNFα 6 day, accession X83492
  Chronic- (6 day Tx) Fold Increase: CD95 (Fas): 4.3 Fold
[1]; TNFα 6 day, accession X83535
  Chronic- (6 day Tx) Fold Increase: MT-MMP: 26.1 Fold
[1]; TNFα 6 day, accession X99886
  Chronic- (6 day Tx) Fold Increase: MCP-2: 131.7 Fold
[1]; TNFα exposure to EA cells
  increased expression of protective genes (superoxide dismutase, A-20, hiap-1, TRAIL, CD95): 4.3-17.7 fold
[1]; chronic TNFα exposure (6 days)
  increases in expression of proinflammatory (proatherogenic) genes: 6.8-75.8 fold
[2]; [4]
  CD31 protein expression: increased
  PAI-1 protein expression: increased
  VCAM-1 protein expression: increased
  caveolin-1 protein expression: increased
  ecNOS protein expression: markedly decreased
[3]; TNFα exposure greater than 3 days (up to 6 days) in 5% FBS, then plated on matrigel
  serum-stimulated tube formation: cells no longer form tubes; also recorded: fail to form tubes

## CC(=O)NC(C(=O)O)C(C)(C)SN=O (racemic) [SNAP, S-Nitroso-N-acetyl-D, L-penicillamine, reference compound]
[2]; [5]
  PAI-1 protein expression: reduces
  VCAM-1 protein expression: reduces
  caveolin-1 protein expression: reduces
[3]; SNAP 200 μM co-incubated with TNFα 10 ng/mL for 6 days prior to plating on MATRIGEL
  tube formation / protection from TNFα-induced dysfunction: protects cells from TNFα induced dysfunction
